# Measured values: BindingDB's records for doi:10.7270/Q22V2DK6 (The Scripps Research Institute Molecular Screening Center, 2010)
# Biological target: T1, Caspase-7 (Homo sapiens, UniProt P55210)
# T1 sequence (P55210 whole entry): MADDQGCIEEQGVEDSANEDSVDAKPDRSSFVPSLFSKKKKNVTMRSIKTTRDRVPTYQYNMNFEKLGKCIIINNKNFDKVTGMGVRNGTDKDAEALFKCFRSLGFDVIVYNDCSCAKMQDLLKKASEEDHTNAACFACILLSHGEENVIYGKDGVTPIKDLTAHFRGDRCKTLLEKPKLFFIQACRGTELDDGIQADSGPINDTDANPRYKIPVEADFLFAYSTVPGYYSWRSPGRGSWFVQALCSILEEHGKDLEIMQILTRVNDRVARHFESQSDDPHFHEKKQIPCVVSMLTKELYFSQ
# Assay: procaspase-7 activators, dose response, counter-screen for procaspase-3 activator project, biochemical, absorbance (AID 489013)
row,Compound,EC50 [µM]
1,O=c1c2c(-c3ccccc3)[nH]n(-c3ccccc3)c-2c(O)n1-c1ccccc1 [SMR000269383],> 85.3
2,O=C(CC1=NC2(CCCC2)Cc2ccccc21)C(=O)NN=Cc1ccccc1O [SMR000219463],> 85.3
